Read-outs that look alike come from different tables or passages of the source.
Tests used:
[1] = test system: Phytophthora infestans (the causal agent of tomato late blight); assay: whole plant or invertebrate; type: in vivo; conditions: for TLB Obsd: component (b) alone
[2] = test system: Pseudoperonospora cubensis (the causal agent of cucumber downy mildew); assay: Test B: cucumber downy mildew, preventive spray on cucumber seedlings; type: in vivo
[3] = Phytophthora infestans, read-out: TLB Obsd (observed effect, tomato late blight), component (b) alone, 2 ppm
[4] = Phytophthora infestans, read-out: TLB Obsd (observed effect, tomato late blight), component (b) alone, 10 ppm
[5] = Phytophthora infestans, read-out: TLB Obsd (observed effect, tomato late blight), component (b) alone, 40 ppm
[6] = Pseudoperonospora cubensis, component (b) alone, 2 ppm, read-out: CDM Obsd (observed effect, cucumber downy mildew)
[7] = Pseudoperonospora cubensis, component (b) alone, 10 ppm, read-out: CDM Obsd (observed effect, cucumber downy mildew)
[8] = Pseudoperonospora cubensis, component (b) alone, 40 ppm, read-out: CDM Obsd (observed effect, cucumber downy mildew)

CCNC(=O)NC(=O)/C(C#N)=N/OC [cymoxanil]
pest or weed control at 0.4 ppm ([1]; Phytophthora infestans, read-out: TLB Obsd (disease control rating), Table A, component (b) alone 0.4 ppm): 9%
pest or weed control at 2 ppm ([1]; Phytophthora infestans, read-out: TLB Obsd (disease control rating), Table A, component (b) alone 2 ppm): 76%
pest or weed control at 10 ppm ([1]; Phytophthora infestans, read-out: TLB Obsd (disease control rating), Table A, component (b) alone 10 ppm): 100%
pest or weed control at 40 ppm ([1]; Phytophthora infestans, read-out: TLB Obsd (disease control rating), Table A, component (b) alone 40 ppm): 100%
pest or weed control at 200 ppm ([1]; Phytophthora infestans, read-out: TLB Obsd (disease control rating), Table A, component (b) alone 200 ppm): 100%
pest or weed control at 0.04 ppm ([1]; Phytophthora infestans, read-out: TLB Obsd (observed effect, tomato late blight), component (b) alone, 0.04 ppm): 44%
pest or weed control at 2 ppm [1, 3]: 46%
pest or weed control at 10 ppm [1, 4]: 100%
pest or weed control at 40 ppm [1, 5]: 100%
pest or weed control at 200 ppm ([1]; Phytophthora infestans, read-out: TLB Obsd (observed effect, tomato late blight), component (b) alone, 200 ppm): 100%
pest or weed control at 0.4 ppm ([2]; Pseudoperonospora cubensis, Table A, component (b) alone 0.4 ppm, read-out: CDM Obsd (disease control rating)): 47%
pest or weed control at 2 ppm ([2]; Pseudoperonospora cubensis, Table A, component (b) alone 2 ppm, read-out: CDM Obsd (disease control rating)): 47%
pest or weed control at 10 ppm ([2]; Pseudoperonospora cubensis, Table A, component (b) alone 10 ppm, read-out: CDM Obsd (disease control rating)): 47%
pest or weed control at 40 ppm ([2]; Pseudoperonospora cubensis, Table A, component (b) alone 40 ppm, read-out: CDM Obsd (disease control rating)): 47%
pest or weed control at 200 ppm ([2]; Pseudoperonospora cubensis, Table A, component (b) alone 200 ppm, read-out: CDM Obsd (disease control rating)): 47%
pest or weed control at 0.4 ppm ([2]; Pseudoperonospora cubensis, Table G, component (b) alone at 0.4 ppm, read-out: CDM Obsd): 26%
pest or weed control at 2 ppm ([2]; Pseudoperonospora cubensis, Table G, component (b) alone at 2 ppm, read-out: CDM Obsd): 26%
pest or weed control at 10 ppm ([2]; Pseudoperonospora cubensis, Table G, component (b) alone at 10 ppm, read-out: CDM Obsd): 26%
pest or weed control at 40 ppm ([2]; Pseudoperonospora cubensis, Table G, component (b) alone at 40 ppm, read-out: CDM Obsd): 26%
pest or weed control at 200 ppm ([2]; Pseudoperonospora cubensis, Table G, component (b) alone at 200 ppm, read-out: CDM Obsd): 26%
pest or weed control at 0.04 ppm ([2]; Pseudoperonospora cubensis, component (b) alone, 0.04 ppm, read-out: CDM Obsd (observed effect, cucumber downy mildew)): 15%
pest or weed control at 2 ppm [2, 6]: 0%
pest or weed control at 10 ppm [2, 7]: 0%
pest or weed control at 40 ppm [2, 8]: 0%
pest or weed control at 200 ppm ([2]; Pseudoperonospora cubensis, component (b) alone, 200 ppm, read-out: CDM Obsd (observed effect, cucumber downy mildew)): 21%

COc1ccc(C(=CC(=O)N2CCOCC2)c2ccc(Cl)cc2)cc1OC [dimethomorph]
pest or weed control at 0.08 ppm ([1]; Phytophthora infestans, read-out: TLB Obsd (disease control rating), Table B, component (b) alone 0.08 ppm): 9%
pest or weed control at 0.4 ppm ([1]; Phytophthora infestans, read-out: TLB Obsd (disease control rating), Table B, component (b) alone 0.4 ppm): 9%
pest or weed control at 2 ppm ([1]; Phytophthora infestans, read-out: TLB Obsd (disease control rating), Table B, component (b) alone 2 ppm): 47%
pest or weed control at 10 ppm ([1]; Phytophthora infestans, read-out: TLB Obsd (disease control rating), Table B, component (b) alone 10 ppm): 86%
pest or weed control at 40 ppm ([1]; Phytophthora infestans, read-out: TLB Obsd (disease control rating), Table B, component (b) alone 40 ppm): 99%
pest or weed control at 0.08 ppm ([1]; Phytophthora infestans, read-out: TLB Obsd (observed effect, tomato late blight), component (b) alone, 0.08 ppm): 31%
pest or weed control at 0.4 ppm ([1]; Phytophthora infestans, read-out: TLB Obsd (observed effect, tomato late blight), component (b) alone, 0.4 ppm): 62%
pest or weed control at 2 ppm [1, 3]: 95%
pest or weed control at 10 ppm [1, 4]: 88%
pest or weed control at 40 ppm [1, 5]: 100%
pest or weed control at 0.08 ppm ([2]; Pseudoperonospora cubensis, Table B, component (b) alone 0.08 ppm, read-out: CDM Obsd (disease control rating)): 47%
pest or weed control at 0.4 ppm ([2]; Pseudoperonospora cubensis, Table B, component (b) alone 0.4 ppm, read-out: CDM Obsd (disease control rating)): 57%
pest or weed control at 2 ppm ([2]; Pseudoperonospora cubensis, Table B, component (b) alone 2 ppm, read-out: CDM Obsd (disease control rating)): 70%
pest or weed control at 10 ppm ([2]; Pseudoperonospora cubensis, Table B, component (b) alone 10 ppm, read-out: CDM Obsd (disease control rating)): 100%
pest or weed control at 40 ppm ([2]; Pseudoperonospora cubensis, Table B, component (b) alone 40 ppm, read-out: CDM Obsd (disease control rating)): 100%
pest or weed control at 0.08 µg/mL ([2]; Pseudoperonospora cubensis, component (b) alone 0.08 ppm (Compound 1 0 ppm), read-out: CDM Obsd): 26%
pest or weed control at 0.4 µg/mL ([2]; Pseudoperonospora cubensis, component (b) alone 0.4 ppm (Compound 1 0 ppm), read-out: CDM Obsd): 26%
pest or weed control at 2 µg/mL ([2]; Pseudoperonospora cubensis, component (b) alone 2 ppm (Compound 1 0 ppm), read-out: CDM Obsd): 83%
pest or weed control at 10 µg/mL ([2]; Pseudoperonospora cubensis, component (b) alone 10 ppm (Compound 1 0 ppm), read-out: CDM Obsd): 100%
pest or weed control at 40 µg/mL ([2]; Pseudoperonospora cubensis, component (b) alone 40 ppm (Compound 1 0 ppm), read-out: CDM Obsd): 100%
pest or weed control at 0.08 ppm ([2]; Pseudoperonospora cubensis, component (b) alone, 0.08 ppm, read-out: CDM Obsd (observed effect, cucumber downy mildew)): 52%
pest or weed control at 0.4 ppm ([2]; Pseudoperonospora cubensis, component (b) alone, 0.4 ppm, read-out: CDM Obsd (observed effect, cucumber downy mildew)): 54%
pest or weed control at 2 ppm [2, 6]: 88%
pest or weed control at 10 ppm [2, 7]: 100%
pest or weed control at 40 ppm [2, 8]: 100%

CCNc1nc(CC)c(C(=O)NC(C#N)c2cccs2)s1 (centres unmarked) [ethaboxam]
TLB Obsd ([1]; 0.016 ppm): 22%
TLB Obsd ([1]; 0.08 ppm): 15%
TLB Obsd ([1]; 0.4 ppm): 95%
TLB Obsd ([1]; 2 ppm): 87%
TLB Obsd ([1]; 10 ppm): 100%
CDM Obsd ([2]; component (b) alone 0.016 ppm (Compound 1 0 ppm)): 47%
CDM Obsd ([2]; component (b) alone 0.08 ppm (Compound 1 0 ppm)): 47%
CDM Obsd ([2]; component (b) alone 0.4 ppm (Compound 1 0 ppm)): 47%
CDM Obsd ([2]; component (b) alone 2 ppm (Compound 1 0 ppm)): 82%
CDM Obsd ([2]; component (b) alone 10 ppm (Compound 1 0 ppm)): 100%
CDM Obsd ([2]; component (b) alone, 0.016 ppm): 0%
CDM Obsd ([2]; component (b) alone, 0.08 ppm): 0%
CDM Obsd ([2]; component (b) alone, 0.4 ppm): 41%
CDM Obsd ([2]; component (b) alone, 2 ppm): 100%
CDM Obsd ([2]; component (b) alone, 10 ppm): 100%

— patent US8449898B2 (priority 2007, dated 2013)
